From patent US7205261B2, “Use of certain N-acylethanolamines to achieve ethylene- and cytokinin-like effects in plants and fungi” (Nutra-Park, Inc., priority 2002, dated 2007)
Like-named read-outs stand apart in the source and are kept apart here.

What was measured:
[1] = test system: Raphanus sativus L. cv. Cherry Belle cotyledons; experiment: Radish cotyledon bioassay (expansion growth and chlorophyll accumulation); assay type: in vivo; design: Chlorophyll a + b: unit not given here; details: for Change in fresh weight: continuous illumination, 25° C., ten cotyledons; for activity at 20 µg/mL: Raphanus sativus, read-out: Change in fresh weight, % of control; for ethylene-like activities (summary of the examples) / cytokinin-like activities (summary of the examples): summary statement in the description
Text: Radish cotyledon bioassay: This bioassay using Raphanus sativus L. cv. Cherry Belle cotyledons was developed by Letham, DS (Physiologia Plantarum 25, 391–396, 1971, incorporated by reference in its entirety) to evaluate the efficacy of cytokinin on cell enlargement. Success using this assay is not restricted to radish. […] In addition to their effect on cell division, cytokinin plays a major role in driving cell enlargement. Compounds in this class of phytohormone and with cytokinin activity also help maintain photosynthetic activity and productivity and abolish proteolytic activity. In cotyledon leaf systems, a requirement for cytokinin is critical and removal of the roots (i.e. the presumed source of cytokinin) renders the cotyledon leaves unable to expand. Exposure to cytokinin (0.02–22 μg/ml) results in a dramatic increase in fresh weight of cotyledons within 72 hours. This effect is not observed with either gibberellin or auxin and is usually delayed or inhibited by abscisic acid and the ethylene precursor, 1-aminocyclopropane-1-carboxylic acid (ACC). […] Thus, the mode of action of cytokinin in this system appears to be similar to that of indole-3-acetic acid (IAA) in auxin-induced stem elongation, a process that depends on an increase in the mechanical extensibility of the cell wall. However, cytokinin antagonizes IAA-mediated cell elongation and appears to do so by promoting ethylene production. Furthermore, cytokinin-induced cell expansion is not usually accompanied by proton (H^+) extrusion and no change in plasma membrane ATPase activity is evident.
Seeds of Raphanus sativus L. cv. Cherry-Belle were germinated in darkness at 24° C. for 36 h in Petri dishes containing filter paper wetted with distilled water. The smaller of the two cotyledons was excised, the fresh weight determined, and 10 cotyledons placed adaxial side down on filter paper in Petri dishes containing 10 ml of KPO4 buffer (2 mM, pH 6.0) and the compounds to be tested at 20 mg/l. […] Chlorophyll content was determined after extraction of tissue into 80% ethanol (containing butylated hydroxytoluene (BHT) 10 mg/l) using the equations Chl a=(13.95A663)−(6.88A647) and Chl b=(24.96A652)−(7.32A663) as described by Lichtenthaler, HK, Methods in Enzymology 148: 350–382, 1987, incorporated by reference in its entirety. FIG. 6 illustrates the difference in cotyledon size in response to the cytokinin kinetin.

maize roots = experiment: Corn root bioassay (ethylene production by maize roots); assay type: in vivo, Zea mays L.; details: for activity at 20 µg/mL: Zea mays, read-out: Ethylene, % of control; for activity at 20 µg/mL / Ethylene / Ethylene, % of control: 20 mg/l; for increase of ethylene production (in words): other experiments using a different treatment time
Description: Corn root bioassay: It is well established that roots of Zea mays produce ethylene when exposed to a variety of stresses (for review, see Morgan, PW and Drew, MC, Physiologia Plantarum 100: 620–630, 1997). Mechanical impedance and hypoxia both induce ethylene formation and usually as early as 1 hour after exposure. In response to ethylene treatment, maize roots show decreased expansion and elongation, a high incidence of cell death and the formation of aerenchyma tissue—particularly evident when roots are exposed to hypoxic conditions (Drew, MC et al., Trends in Plant Science 5: 123–127, 2000, Morgan and Drew 1997).
Seeds of Zea mays L. were sown in flats of Perlite, covered with a layer of vermiculite, and irrigated daily with water and/or 1/10 Hoagland solution. Seedlings were cultivated under continuous illumination at 22–25° C. and used when 7 d old. Seedlings were removed from the Perlite and washed under running tap water. Seedlings were allowed to acclimate in water and/or 1/10 Hoagland solution for several hours before being transferred to Falcon tubes containing the test compounds (all 20 mg/l) prepared in 1/10 Hoagland solution. […] Roots were then transferred to gas-tight tubes each containing 200 μl of water. The tubes were sealed and incubated at 26° C. for 1–2 h in darkness before gas samples were drawn from the incubation tubes using a 1 ml syringe and assayed by gas chromatography (Romera, FJ et al. (1999) Annals of Botany 83, 51–55).

[2] = Table 2, 72 h incubation, 20 mg/l
[3] = experiment 1, 72 h illumination, roots incubated 2 h in gas tight tubes
[4] = experiment 2, 36 h illumination, roots incubated 2 h in darkness at 24° C.
[5] = Table 3, 48 h incubation, 20 mg/l

| SMILES | Chlorophyll (mg/g FW) a + b ([1]; Experiment 2, 20 mg/l, 48 h) [mg/g FW] | Chlorophyll (μg/cotyledon) a + b ([1]; Experiment 2, 20 mg/l, 48 h) [μg/cotyledon] | Chlorophyll a/b ([1]; Experiment 2, 20 mg/l, 48 h) | Change in fresh weight ([1]; Experiment 2, 20 mg/l, 48 h) [mg] | activity at 20 µg/mL ([1]; Experiment 2, 20 mg/l, 48 h) [%] | Chlorophyll a/b ([1]; Experiment 1, 20 mg/l, 72 h) | Change in fresh weight ([1]; Experiment 1, 20 mg/l, 72 h) [mg] | activity at 20 µg/mL ([1]; Experiment 1, 20 mg/l, 72 h) [%] | ethylene-like activities (summary of the examples) [1] | Ethylene (maize roots; [4]) [pmol/g FW/h] | hormone-like activity with respect to expansion growth (in words) [1, 5] | cytokinin-like activities (summary of the examples) [1] | further results |
| --- | --- | --- | --- | --- | --- | --- | --- | --- | --- | --- | --- | --- | --- |
| CCCCC(CC)C(=O)NCCO (centres unmarked) [NAE-EH, N-(2-Ethylhexanoyl)-2-aminoethanol] | 1.63 | 19.73 | 1.8 | 7.69 ± 1.16 | 95 |  |  |  |  |  |  |  |  |
| O=CNCCO [NAE-1, N-Formyl-2-aminoethanol] | 1.62 | 21.19 | 2.0 | 8.68 ± 1.70 | 107 | 1.7 | 7.61 ± 3.42 | 54 | ethylene-like activities | 45.32 ± 18.98 |  |  | Chlorophyll a + b ([1]; Experiment 1, 20 mg/l, 72 h): 0.59; cotyledon expansion (in words) [1, 2]: significantly slowed cotyledon expansion; activity at 20 µg/mL (maize roots; experiment 1, 72 h): 175%; activity at 20 µg/mL (maize roots; experiment 2, 36 h): 157%; Ethylene (maize roots; [3]): 1034.4 ± 255.3 nL/g FW/h; increase of ethylene production (in words) (maize roots): effective |
| CCCC(=O)NCCO [NAE-4:0, N-Butyroyl-2-aminoethanol] | 2.00 | 23.49 | 1.9 | 7.15 ± 1.16 | 88 |  |  |  | ethylene-like activities |  | ethylene-like activity | cytokinin-like activities | increase of ethylene production (in words) (maize roots): effective |
| CCCCCCCCCCCC(=O)NCCO [NAE-12:0, N-Dodecanoyl-2-aminoethanol] | 1.79 | 23.16 | 2.0 | 8.53 ± 1.59 |  |  |  |  |  |  |  | cytokinin-like activities | activity at 20 µg/mL ([1]; 48 h): 105% |
| CCCCCCCCCCCCCCCC(=O)NCCO [NAE-16:0, N-Hexadecanoyl-2-aminoethanol] | 1.44 | 24.18 | 1.7 | 12.42 ± 2.26 | 153 |  |  |  |  |  | cytokinin-like activity | cytokinin-like activities | chlorophyll content per unit mass (in words) [1, 5]: decreased chlorophyll content per unit mass; chlorophyll per cotyledon (in words) [1, 5]: increased chlorophyll per cotyledon |
| CCCCCC(=O)NCCO [NAE-6:0, N-Hexanoly-2-aminoethanol] | 1.73 | 19.80 | 2.0 | 7.02 ± 0.98 |  | 1.6 | 8.04 ± 3.86 |  | ethylene-like activities | 40.58 ± 11.85 | ethylene-like activity |  | Change in fresh weight, % of control ([1]; Experiment 1, 20 mg/l, 72 h): 57%; Chlorophyll a + b ([1]; Experiment 1, 20 mg/l, 72 h): 0.65; Change in fresh weight, % of control ([1]; Experiment 2, 20 mg/l, 48 h): 87%; cotyledon expansion (in words) [1, 2]: significantly slowed cotyledon expansion; Ethylene, % of control (maize roots; Experiment 1, 72 h): 210%; Ethylene (maize roots; [3]): 1244.0 ± 406.2 nL/g FW/h; Ethylene, % of control (maize roots; experiment 2, 36 h): 141%; relative efficacy on ethylene formation (in words) (maize roots; first experiment (Table 4)): strongest effect |
| O=C(NCCO)c1ccccc1 [NAE-Bz, N-Benzoyl-2-aminoethanol] | 1.77 | 20.87 | 1.8 | 7.36 ± 1.00 | 91 |  |  |  |  |  |  |  |  |
| NC1(C(=O)O)CC1 [ACC, 1-aminocyclopropane-1-carboxylic acid, reference compound] | 1.42 | 12.27 | 1.8 | 4.25 ± 0.63 | 52 | 3.7 | 5.54 ± 2.87 | 40 |  |  |  |  |  |
| CCCCCCCC/C=C\CCCCCCCC(=O)NCCO [NAE-18:1(Δ9), N-Oleoyl-2-aminoethanol] | 1.99 | 20.29 | 2.0 | 5.78 ± 0.96 | 71 |  |  |  | ethylene-like activities |  | ethylene-like activity | cytokinin-like activities | cotyledon expansion (in words) [1, 5]: slowed cotyledon expansion; increase of ethylene production (in words) (maize roots): effective |
| c1coc(CNc2ncnc3[nH]cnc23)c1 [Kinetin, kinetin, reference compound] | 0.81 | 25.78 | 1.8 | 27.26 ± 2.88 | 336 | 1.2 | 23.74 ± 7.92 | 169 |  |  |  |  |  |
| CCCCCCCCCCCCCCCCCC(=O)NCCO [NAE-18:0, N-Octadecanoyl-2-aminoethanol] | 1.85 | 22.42 | 1.9 | 7.75 ± 1.01 | 96 |  |  |  |  |  |  |  |  |
| CC(=O)NCCO [NAE-2, N-Acetyl-2-aminoethanol] | 1.94 | 19.88 | 2.0 | 5.86 ± 1.36 | 72 | 1.3 | 12.52 ± 2.83 | 89 | ethylene-like activities | 45.96 ± 12.53 | ethylene-like activity |  | chlorophyll accumulation (in words) [1, 2]: greater effect than other NAEs; cotyledon expansion (in words) [1, 5]: slowed cotyledon expansion; activity at 20 µg/mL (maize roots; experiment 1, 72 h): 146%; activity at 20 µg/mL (maize roots; experiment 2, 36 h): 160% |
| CCCCCCCC(=O)NCCO [NAE-8:0, N-Octanoyl-2-aminoethanol] | 1.75 | 22.27 | 1.8 | 8.29 ± 0.72 | 102 | 1.5 | 13.32 ± 6.40 | 95 | ethylene-like activities | 55.46 ± 31.59 |  |  | chlorophyll accumulation (in words) [1, 2]: greater effect than other NAEs; activity at 20 µg/mL (maize roots; experiment 1, 72 h): 116%; activity at 20 µg/mL (maize roots; experiment 2, 36 h): 193%; Ethylene (maize roots; [3]): 685.2 ± 211.6 nL/g FW/h; relative efficacy on ethylene formation (in words) (maize roots; second experiment (Table 5)): strongest effect |
